From patent publication US10976310B2, “Ligand identification by co-fractionation” (MAX-PLANCK-GESELLSCHAFT ZUR FÖRDERUNG DER WISSENSCHAFTEN …, priority 2016, dated 2021) come the findings set out here.

Where “and” joins values, the source holds several entries; their conditions need not be identical. Equal values may be shown once.

For one experiment, the target named is T1, TIA1 (Homo sapiens, UniProt P31483).
T1 construct: purchased Origene (Herford, Germany)
T1 sequence (P31483 1-386): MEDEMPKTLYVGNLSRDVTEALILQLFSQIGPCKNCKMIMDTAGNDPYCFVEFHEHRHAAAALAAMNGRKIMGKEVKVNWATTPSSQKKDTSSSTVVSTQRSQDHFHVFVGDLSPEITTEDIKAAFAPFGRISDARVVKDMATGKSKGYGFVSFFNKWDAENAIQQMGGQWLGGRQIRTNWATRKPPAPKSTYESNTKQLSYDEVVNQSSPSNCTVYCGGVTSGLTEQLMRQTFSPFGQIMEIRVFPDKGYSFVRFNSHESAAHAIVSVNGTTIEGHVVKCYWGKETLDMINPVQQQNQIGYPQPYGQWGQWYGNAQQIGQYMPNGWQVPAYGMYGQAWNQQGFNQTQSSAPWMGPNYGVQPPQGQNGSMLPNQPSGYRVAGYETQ
Description: MST measurement of ligand binding to recombinant TIA1. The settings on record: recombinant TIA1, n=3. Here is the method:
(§1) Expecting such a basic role of 2′,3′-cAMP to be conserved, we performed similar analysis with TIA1, the human functional homolog of Rbp47b. TIA1 was labeled and its interaction with 2′,3′-cAMP was determined using MST.
TIA1 protein was purchased from Origene (Herford, Germany). Rbp47b was cloned as a C-terminal GFP fusion (to increase protein solubility) into the E. coli expression vector pDEST14 containing His6-tag at the N-terminal of the Gateway (Karlsruhe, Germany) cassette. Rosetta cells expressing His6-Rbp47b-GFP were grown at 28° C. overnight and next day were moved to Terrific Broth medium supplied with 1% sucrose and relevant antibiotics. Cultures at OD 0.4 were induced by addition of 0.1 mM IPTG and transferred to 16° C. for overnight incubation.
MST measurements were performed using a Monolith NT.115 instrument (NanoTemper, München, Germany). Capillaries were loaded into the instrument as sets of 13-16 point ligand titrations. Proteins (Rb47b and TIA1) were labeled in phosphate buffer (PBS) using Monolith™ protein labeling kit RED-NHS (amine reactive; MO-L001) according to the manufacturers instruction. Excitation was optimized by varying the LED power to yield emission intensities above 200 AU, corresponding to 10-50 nM labeled protein. Monolith power was set to 60%. Ligands [2′,3′-cAMP (Sigma A9376)] and [3′,5′-cAMP (Sigma A6885)] were dissolved in PBS. […]

Another experiment has as its target T2, TIA1 self-assembly (Homo sapiens, UniProt P31483).
T2 construct: purchased Origene (Herford, Germany)
T2 sequence (P31483 1-386): T1 sequence (P31483 1-386)
Description: MST measurement of TIA1 self-assembly. In kind it is binding. To be noted: 500 μM 2′,3′-cAMP; in its absence Kd=36.28 nM (36 nM); read-out: Kd of TIA1 self-assembly in the presence of the ligand. On the procedure: as §1
MST measurements were performed using a Monolith NT.115 instrument (NanoTemper, München, Germany). Capillaries were loaded into the instrument as sets of 13-16 point ligand titrations. Proteins (Rb47b and TIA1) were labeled in phosphate buffer (PBS) using Monolith™ protein labeling kit RED-NHS (amine reactive; MO-L001) according to the manufacturers instruction. Excitation was optimized by varying the LED power to yield emission intensities above 200 AU, corresponding to 10-50 nM labeled protein. Monolith power was set to 60%. Ligands [2′,3′-cAMP (Sigma A9376)] and [3′,5′-cAMP (Sigma A6885)] were dissolved in PBS. 0.5% Tween and premium coated capillaries were used to prevent sticking. Non-labeled TIA1 and Rbp47b were used as ligands in the self-assembly experiments. MO Affinity Analysis software was used to analyze (Kd calculation) and visualize the data. Presented data are from 2-3 technical replicates.

On to `Nc1ncnc2c1ncn2[C@@H]1O[C@H](CO)[C@H]2OP(=O)(O)O[C@H]21` [2′,3′-cAMP], for which the Kd (in general, the constant that tells how readily two partners part at equilibrium) was 217000 nM on TIA1; 20.6 nM and 20 nM at TIA1 self-assembly.
